Data on 3 compounds can be found in patent publication US7105695B2, “Synthesis of combretastatin A-2 prodrugs” (priority 2001, dated 2006).

Values after ≈ are worked out from the molar mass of the structure shown. Read-outs that look alike come from different tables or passages of the source. Some results are limits rather than exact numbers.

As usually defined, the GI50 is the concentration giving 50% growth inhibition. In general, solubility refers to the concentration that dissolves in the medium under given conditions. The low end stands for a poorly soluble substance, the high end for a readily soluble substance.

One data set concerns mitosis. The note with it: compared with the Z-isomer (1a); cited from earlier work.
A further data set relates to BXPC-3. The data set can be described thus: Human cancer cell line growth inhibition, pancreas BXPC-3. In kind it is cell-based. The note with it: BXPC-3 human cancer cell line.
Another data set deals with MCF-7. The data set is described as follows: Human cancer cell line growth inhibition, breast MCF-7. In kind it is cell-based. The note with it: MCF-7 human cancer cell line.
A further data set has as its system SF5268. The data set can be described thus: Human cancer cell line growth inhibition, CNS gliob SF5268. In kind it is cell-based.
A further data set relates to NCI-H460. The data set is described as follows: Human cancer cell line growth inhibition, lung-NSC NCI-H460. In kind it is cell-based.
Another data set has as its system KM20L2. The data set can be described thus: Human cancer cell line growth inhibition, colon KM20L2. Format: cell-based.
Another data set relates to DU-145. The data set is described as follows: Human cancer cell line growth inhibition, prostate DU-145. In kind it is cell-based. The note with it: DU-145 human cancer cell line.
A further data set concerns NCI 60-cell screen. The data set can be described thus: NCI 60-cell screen. As to conditions: mean ± SE, read-out: mean-panel GI50. In kind it is cell-based, human.
The test system of another data set is Cryptococcus neoformans. The data set can be described thus: Broth microdilution susceptibility assay, Cryptococcus neoformans. In kind it is cell-based. The note with it: read-out: Minimum inhibitory concentration. The text has this: (§1) Compounds were screened against the bacteria Stenotrophomonas maltophilia, Micrococcus luteus, Staphylococcus aureus, Escherichia coli, Enterobacter cloacae, Enterococcus faecalis, Streptococcus pneumoniae, Neisseria gonorrhoeae, and the fungi Candida albicans and Cryptococcus neoformans, according to established broth microdilution susceptibility assays (NCCLS approved standard M7-A4, 1997; NCCLS approved standard M27-A, 1997). The minimum inhibitory concentration was defined as the lowest concentration of compound that inhibited all visible growth of the test organism (optically clear). Assays were repeated on separate days.

Another data set has as its system Streptococcus pneumoniae. The data set can be described thus: Broth microdilution susceptibility assay, Streptococcus pneumoniae. Format: cell-based. The note with it: read-out: Minimum inhibitory concentration.
Text: as §1

In another data set the test system is Micrococcus luteus. The data set can be described thus: Broth microdilution susceptibility assay, Micrococcus luteus. In kind it is cell-based. As to conditions: read-out: Minimum inhibitory concentration.
Text: as §1
(In general: In broth dilution the organism is exposed to a series of concentrations in liquid medium.)

The subject of a further data set is Neisseria gonorrhoeae. The data set is described as follows: Broth microdilution susceptibility assay, Neisseria gonorrhoeae. In kind it is cell-based.
Text: as §1

The subject of a further data set is bacteria and fungi panel. The data set can be described thus: Broth microdilution screen, whole panel of bacteria and fungi. In kind it is cell-based. As to conditions: among the compounds screened, Table III.
Text: as §1

For data set [1] the following is noted: 25° C.
A further data set in a line: physchem. The note with it: 25 °C, water.

For `COc1ccc(C=Cc2cc(OC)c3c(c2)OCO3)cc1O` (single isomer, unassigned) [E-isomer of combretastatin A-2], in the data set with mitosis, the antimitotic activity result is reported as “considerably less antimitotic activity”.

With `COc1ccc(/C=C\c2cc(OC)c3c(c2)OCO3)cc1O` [Compound 1a, Combretastatin A-2], the GI50 in the data set with BXPC-3 is 0.014 µg/mL (≈ 0.0466 µM); in the data set on MCF-7 (MCF7), 0.0042 µg/mL (≈ 0.014 µM); in the data set with SF5268 (read-out: GI50 CNSGliob SF5268) it was 0.0083 µg/mL (≈ 0.0276 µM); with NCI-H460, 0.043 µg/mL (≈ 0.143 µM); in the data set with KM20L2 (KM-20L2) it was 0.47 µg/mL (≈ 1.57 µM); with DU-145 (read-out: GI50 Prostrate DU-145), 0.0054 µg/mL (≈ 0.018 µM). The 50% growth inhibitory concentration (GI50) in the data set on NCI 60-cell screen (Homo sapiens) came to 83.3 ± 17.3 nM. For the same compound, the MIC in the data set on Cryptococcus neoformans was found to be 64 µg/mL (≈ 213 µM); with Streptococcus pneumoniae, 64 µg/mL (≈ 213 µM); in the data set with Micrococcus luteus it was 64 µg/mL (≈ 213 µM); in the data set on Neisseria gonorrhoeae (read-out: Minimum inhibitory concentration), 32 µg/mL (≈ 107 µM). Further, in the data set with bacteria and fungi panel, the antimicrobial spectrum result was “broadest antimicrobial spectra”. Also, the Solubility in water in data set [1] was less than 1000 µg/mL. Also, the solubility in “physchem” is less than 1000 µg/mL.

Consider “Sodium combretastatin A-2 3′-O-phosphate [Compound 2a]”, for which the “GI50 Pancreas BXPC-3” value in the data set with BXPC-3 came to 2.1 µg/mL. Moreover, the “GI50 Breast MCF-7” value with MCF-7 amounted to 0.045 µg/mL. Further, in the data set with SF5268, the “GI50 CNSGliob SF5268” value came out at 0.042 µg/mL. Besides, in the data set with NCI-H460, the “GI50 Lung-NSC NCI-H460” value came to 0.41 µg/mL. Further, the “GI50 Colon KM20L2” value in the data set on KM20L2 turned out to be 3.8 µg/mL. Further, the “GI50 Prostrate DU-145” value with DU-145 came to 0.053 µg/mL. Moreover, the GI50 with NCI 60-cell screen is 165 ± 30.7 nM. In the data set on Neisseria gonorrhoeae, this compound gave a Minimum inhibitory concentration of 8 µg/mL. Besides, in data set [1], the Solubility in water came to 18000 µg/mL.
